Tested on: Wheat and Barley and test plant species
Assay: Post-emergent Test III, herbicidal activity in wheat and barley (Table 17; visual injury, GR20/GR50/GR80/GR90)
Format: in vivo
Settings: 21 d; for Visual Growth Reduction (%) 21 Days After Application, CIRAR / Visual Growth Reduction (%) 21 Days After Application, GALAP / Visual Growth Reduction (%) 21 Days After Application, HORVS / Visual Growth Reduction (%) 21 Days After Application, KCHSC / Visual Growth Reduction (%) 21 Days After Application, LAMPU / Visual Growth Reduction (%) 21 Days After Application, MATCH / Visual Growth Reduction (%) 21 Days After Application, PAPRH / Visual Growth Reduction (%) 21 Days After Application, SASKR / Visual Growth Reduction (%) 21 Days After Application, SINAR / Visual Growth Reduction (%) 21 Days After Application, TRZAS / Visual Growth Reduction (%) 21 Days After Application, VERPE / Visual Growth Reduction (%) 21 Days After Application, VIOTR: post-emergent
How it was run: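 Greenhouse-grown plants at second to third true leaf stage (about 18/17° C day/night, 14 h photoperiod) sprayed post-emergence with compound in acetone/DMSO/water-based mix with Agri-Dex crop oil and X-77 surfactant at 187 L/ha, at highest rate and 1/2× to 1/16× dilutions. Visual injury scored 0–100% versus untreated plants after 21 d; GR20/GR50/GR80/GR90 from probit analysis.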

COC(=O)c1nc(-c2ccc3cc[nH]c3c2F)cc(N)c1Cl [Compound 1.23, Methyl 4-amino-3-chloro-6-(7-fluoro-1H-indol-6-yl)picolinate]
Visual Growth Reduction (%) 21 Days After Application, CIRAR (CIRAR, 17.5 g ai/ha): G (0-29)
Visual Growth Reduction (%) 21 Days After Application, CIRAR (CIRAR, 35 g ai/ha): G (0-29)
Visual Growth Reduction (%) 21 Days After Application, CIRAR (CIRAR, 70 g ai/ha): G (0-29)
GR50, CIRAR (CIRAR, dose for 50 percent growth reduction, probit analysis): >140 g ai/ha
GR80, CIRAR (CIRAR, dose for 80 percent growth reduction, probit analysis): >140 g ai/ha
GR90, CIRAR (CIRAR, dose for 90 percent growth reduction, probit analysis): >140 g ai/ha
Visual Growth Reduction (%) 21 Days After Application, GALAP (GALAP, 17.5 g ai/ha): A (95-100)
Visual Growth Reduction (%) 21 Days After Application, GALAP (GALAP, 35 g ai/ha): A (95-100)
Visual Growth Reduction (%) 21 Days After Application, GALAP (GALAP, 70 g ai/ha): A (95-100)
GR50, GALAP (GALAP, dose for 50 percent growth reduction, probit analysis): 1 g ai/ha
GR80, GALAP (GALAP, dose for 80 percent growth reduction, probit analysis): 4 g ai/ha
GR90, GALAP (GALAP, dose for 90 percent growth reduction, probit analysis): 7 g ai/ha
Visual Growth Reduction (%) 21 Days After Application, HORVS (HORVS, 17.5 g ai/ha): G (0-29)
Visual Growth Reduction (%) 21 Days After Application, HORVS (HORVS, 35 g ai/ha): G (0-29)
Visual Growth Reduction (%) 21 Days After Application, HORVS (HORVS, 70 g ai/ha): G (0-29)
GR20, HORVS (HORVS, dose for 20 percent growth reduction, probit analysis): >140 g ai/ha
Visual Growth Reduction (%) 21 Days After Application, KCHSC (KCHSC, 17.5 g ai/ha): F (30-44)
Visual Growth Reduction (%) 21 Days After Application, KCHSC (KCHSC, 35 g ai/ha): E (45-59)
Visual Growth Reduction (%) 21 Days After Application, KCHSC (KCHSC, 70 g ai/ha): D (60-74)
GR50, KCHSC (KCHSC, dose for 50 percent growth reduction, probit analysis): 35 g ai/ha
GR80, KCHSC (KCHSC, dose for 80 percent growth reduction, probit analysis): 110 g ai/ha
GR90, KCHSC (KCHSC, dose for 90 percent growth reduction, probit analysis): >140 g ai/ha
Visual Growth Reduction (%) 21 Days After Application, LAMPU (LAMPU, 17.5 g ai/ha): B (85-94)
Visual Growth Reduction (%) 21 Days After Application, LAMPU (LAMPU, 35 g ai/ha): A (95-100)
Visual Growth Reduction (%) 21 Days After Application, LAMPU (LAMPU, 70 g ai/ha): A (95-100)
GR50, LAMPU (LAMPU, dose for 50 percent growth reduction, probit analysis): 3 g ai/ha
GR80, LAMPU (LAMPU, dose for 80 percent growth reduction, probit analysis): 6 g ai/ha
GR90, LAMPU (LAMPU, dose for 90 percent growth reduction, probit analysis): 9 g ai/ha
Visual Growth Reduction (%) 21 Days After Application, MATCH (17.5 g ai/ha): G (0-29)
Visual Growth Reduction (%) 21 Days After Application, MATCH (35 g ai/ha): G (0-29)
Visual Growth Reduction (%) 21 Days After Application, MATCH (70 g ai/ha): G (0-29)
Visual Growth Reduction (%) 21 Days After Application, PAPRH (PAPRH, 17.5 g ai/ha): D (60-74)
Visual Growth Reduction (%) 21 Days After Application, PAPRH (PAPRH, 35 g ai/ha): A (95-100)
Visual Growth Reduction (%) 21 Days After Application, PAPRH (PAPRH, 70 g ai/ha): A (95-100)
GR50, PAPRH (PAPRH, dose for 50 percent growth reduction, probit analysis): 11 g ai/ha
GR80, PAPRH (PAPRH, dose for 80 percent growth reduction, probit analysis): 17 g ai/ha
GR90, PAPRH (PAPRH, dose for 90 percent growth reduction, probit analysis): 22 g ai/ha
Visual Growth Reduction (%) 21 Days After Application, SASKR (SASKR, 17.5 g ai/ha): F (30-44)
Visual Growth Reduction (%) 21 Days After Application, SASKR (SASKR, 35 g ai/ha): E (45-59)
Visual Growth Reduction (%) 21 Days After Application, SASKR (SASKR, 70 g ai/ha): C (75-84)
GR50, SASKR (SASKR, dose for 50 percent growth reduction, probit analysis): 29 g ai/ha
GR80, SASKR (SASKR, dose for 80 percent growth reduction, probit analysis): 90 g ai/ha
GR90, SASKR (SASKR, dose for 90 percent growth reduction, probit analysis): >140 g ai/ha
Visual Growth Reduction (%) 21 Days After Application, SINAR (SINAR, 17.5 g ai/ha): C (75-84)
Visual Growth Reduction (%) 21 Days After Application, SINAR (SINAR, 35 g ai/ha): C (75-84)
Visual Growth Reduction (%) 21 Days After Application, SINAR (SINAR, 70 g ai/ha): A (95-100)
GR50, SINAR (SINAR, dose for 50 percent growth reduction, probit analysis): 3 g ai/ha
GR80, SINAR (SINAR, dose for 80 percent growth reduction, probit analysis): 14 g ai/ha
GR90, SINAR (SINAR, dose for 90 percent growth reduction, probit analysis): 32 g ai/ha
Visual Growth Reduction (%) 21 Days After Application, TRZAS (TRZAS, 17.5 g ai/ha): G (0-29)
Visual Growth Reduction (%) 21 Days After Application, TRZAS (TRZAS, 35 g ai/ha): G (0-29)
Visual Growth Reduction (%) 21 Days After Application, TRZAS (TRZAS, 70 g ai/ha): G (0-29)
GR20, TRZAS (TRZAS, dose for 20 percent growth reduction, probit analysis): 66 g ai/ha
Visual Growth Reduction (%) 21 Days After Application, VERPE (VERPE, 17.5 g ai/ha): B (85-94)
Visual Growth Reduction (%) 21 Days After Application, VERPE (VERPE, 35 g ai/ha): B (85-94)
Visual Growth Reduction (%) 21 Days After Application, VERPE (VERPE, 70 g ai/ha): A (95-100)
GR50, VERPE (VERPE, dose for 50 percent growth reduction, probit analysis): 1 g ai/ha
GR80, VERPE (VERPE, dose for 80 percent growth reduction, probit analysis): 8 g ai/ha
GR90, VERPE (VERPE, dose for 90 percent growth reduction, probit analysis): 21 g ai/ha
Visual Growth Reduction (%) 21 Days After Application, VIOTR (VIOTR, 17.5 g ai/ha): G (0-29)
Visual Growth Reduction (%) 21 Days After Application, VIOTR (VIOTR, 35 g ai/ha): E (45-59)
Visual Growth Reduction (%) 21 Days After Application, VIOTR (VIOTR, 70 g ai/ha): D (60-74)
GR50, VIOTR (VIOTR, dose for 50 percent growth reduction, probit analysis): 44 g ai/ha
GR80, VIOTR (VIOTR, dose for 80 percent growth reduction, probit analysis): 119 g ai/ha
GR90, VIOTR (VIOTR, dose for 90 percent growth reduction, probit analysis): >140 g ai/ha
